Data from patent US20030162777A1, “Novel N-acylated heterocycles” (Recordati S.A., priority 2001, published 2003).
pKi: −log10 of the molar value.

biological target: T1, human 5HT1A-serotonergic receptor (Homo sapiens, UniProt P08908); assay: Radioligand binding to recombinant 5-HT1A receptors; conditions: [3H]8-OH-DPAT 1 nM, membranes of HeLa cells with human 5-HT1A receptor; Ki from IC50 by Cheng & Prusoff; read-out: Binding affinity for 5HT1A receptors, Ki
T1 construct: expressed in transfected cells; host or cells: HeLa (human cell line), stably transfected; cell membranes used
T1 sequence (P08908 1-422): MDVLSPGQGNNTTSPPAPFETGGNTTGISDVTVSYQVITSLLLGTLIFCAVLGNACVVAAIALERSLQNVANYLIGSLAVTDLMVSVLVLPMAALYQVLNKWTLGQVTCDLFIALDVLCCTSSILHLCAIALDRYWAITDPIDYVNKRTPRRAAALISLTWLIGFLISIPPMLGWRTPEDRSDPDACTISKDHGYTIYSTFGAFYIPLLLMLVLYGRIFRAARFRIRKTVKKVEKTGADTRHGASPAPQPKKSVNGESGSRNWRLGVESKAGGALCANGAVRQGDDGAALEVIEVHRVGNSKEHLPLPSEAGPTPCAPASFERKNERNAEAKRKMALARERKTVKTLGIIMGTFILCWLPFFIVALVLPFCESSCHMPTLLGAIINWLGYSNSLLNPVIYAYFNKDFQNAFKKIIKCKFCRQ
Procedure: Genomic clone G-21 coding for the human 5HT1A-serotonergic receptor was stably transfected in a human cell line (HeLa). HeLa cells were grown as monolayers in Dulbecco's modified Eagle medium (DMEM), containing 10% foetal bovine serum, gentamicin ([…]) and 5% carbon dioxide, at 37° C. The cells were detached from the growth flask at 95% confluence by a cell scraper and were lysed in cold 5 mM Tris and 5 mM EDTA buffer (pH 7.4). The homogenates were centrifuged at 40000×g×20 minutes and the pellets were resuspended in a small volume of cold 5 mM Tris and 5 mM EDTA buffer (pH 7.4) and immediately frozen and stored at −70° C. until use. On the day of experiment, the cell membranes were resuspended in incubation buffer: 50 mM Tris HCl (pH 7.4), 2.5 mM MgCl2, […] (Fargin et al., Nature 335, 358-360, 1988). The membranes were incubated in a final volume of 1 ml for 30 minutes at 30° C. with 1 nM [^3H]8-OH-DPAT, in the absence or presence of the test compounds. Non-specific binding was determined in the presence of 10 μM 5-HT. Incubation was stopped by addition of cold Tris-HC 1 buffer and rapid filtration through a 0.2%-polyethyleneimine-pretreated Whatman-GF/B or Schleicher-&-Schuell-GF52 filter.
The affinity of the tested compounds was evaluated as inhibition of specific binding of the radioligand to 5-HT1A receptors (IC50) by using the non-linear curve-fitting program Allfit (De Lean et al., Am. J. Physiol. 235, E97-E102 (1978). The IC50 value was converted to an affinity constant (Ki) by the equation of Cheng & Prusoff (Cheng Y. C., Prusoff W. H., Biochem. Pharmacol. 22, 3099-3108 (1973)).

pKi	Compound
7.38	O=C1CCC(CC(=O)N2c3ccccc3CCC2CN2CCN(c3cccc4[nH]ccc34)CC2)N1 (centres unmarked) [Example 68A54, 1-(4-Indolyl)-4-[1-[2-(5-oxopyrrolidin-2yl)acetyl]-1,2,3,4-tetrahydroquinoline-2-ylmethyl]piperazine]
7.39	COc1cc(F)ccc1N1CCN(CC2CCc3cc(N)ccc3N2C(=O)C2CCCCC2)CC1 (centres unmarked) [Example 85, 1-(6-Amino-1-cyclohexanecarbonyl-1,2,3,4-tetrahydroquinoline-2-ylmethyl)-4-(4-fluoro-2-methoxyphenyl)piperazine]
7.48	Cc1ccc(S(=O)(=O)n2ccc(C(=O)N3c4ccccc4CCC3CN3CCN(c4cccc5[nH]ccc45)CC3)c2)cc1 (centres unmarked) [Example 68A57, 1-(4-Indolyl)-4-[1-[1-(4-methylphenylsulphonyl)pyrrole-3-carbonyl]-1,2,3,4-tetrahydroquinoline-2-ylmethyl]piperazine]
7.91	O=C(C1CCCCC1)N1c2ccccc2CCC1CN1CCN(Cc2ccccc2Cl)CC1 (centres unmarked) [Example 35A34, 1-(2-Chlorobenzyl)-4-(1-cyclohexanecarbonyl-1,2,3,4-tetrahydroquinoline-2-ylmethyl)piperazine]
7.74	COc1cc(F)ccc1N1CCN(CC2CCc3cc(C)ccc3N2C(=O)CC2CCCCC2)CC1 (centres unmarked) [Example 73A6, 1-(1-Cyclohexylacetyl-1,2,3,4-tetrahydroquinolin-6-methyl-2-ylmethyl)-4-(4-fluoro-2-methoxyphenyl)piperazine]
8.28	Cc1ccc(C(=O)N2c3ccccc3CCC2CN2CCN(c3cccc4[nH]ccc34)CC2)cc1 (centres unmarked) [Example 68A70, 1-(4-Indolyl)-4-[1-(4-methylbenzoyl)-1,2,3,4-tetrahydroquinoline-2-ylmethyl]piperazine]
8.64	CC(C)(C)NC(=O)N1c2ccccc2CCC1CN1CCN(c2cccc3c2OCCO3)CC1 (centres unmarked) [Example 76A13, 1-(2,3-Dihydrobenzo[1,4]dioxin-5-yl)-4-[1-(1,1-dimethylethylaminocarbonyl)-1,2,3,4-tetrahydroquinolin-2-ylmethyl]piperazine]
7.51	O=C(c1ccsc1)N1c2ccccc2CCC1CN1CCN(c2cccc3[nH]ccc23)CC1 (centres unmarked) [Example 68A20, 1-(4-Indolyl)-4-[1-(3-thienylcarbonyl)-1,2,3,4-tetrahydroquinoline-2-ylmethyl]piperazine]
8.11	N#Cc1ccccc1N1CCN(CC2CCc3ccccc3N2C(=O)C2CCCCC2)CC1 (centres unmarked) [Example 72A13, 1-(2-Cyanophenyl)-4-(1-cyclohexanecarbonyl-1,2,3,4-tetrahydroquinolin-2-ylmethyl)piperazine]
8.00	O=C(CC1CC1)N1c2ccccc2CCC1CN1CCN(c2nccc3ccccc23)CC1 (centres unmarked) [Example 75A2, 1-[1-(2-Cyclopropylacetyl)-1,2,3,4-tetrahydroquinolin-2-ylmethyl]-4-(1-isoquinolinyl)piperazine]
8.51	N#Cc1ccc(Cl)cc1N1CCN(CC2CCc3ccccc3N2C(=O)C2CCCCC2)CC1 (centres unmarked) [Example 35A23, 1-(5-chloro-2-cyanophenyl)-4-(1-cyclohexanecarbonyl-1,2,3,4-tetrahydroquinoline-2-ylmethyl)piperazine]
8.38	CCOc1ccc(C(=O)N2c3ccccc3CCC2CN2CCN(c3cccc4[nH]ccc34)CC2)cc1 (centres unmarked) [Example 68A69, 1-[1-(4-Ethoxybenzoyl)-1,2,3,4-tetrahydroquinoline-2-ylmethyl]-4-(4-indolyl)piperazine]
7.40	CNC(=S)N1c2ccccc2CCC1CN1CCN(c2cccc3[nH]ccc23)CC1 (centres unmarked) [Example 69A8, 1-(4-Indolyl)-4-[1-methylaminothiocarbonyl-1,2,3,4-tetrahydroquinoline-2-ylmethyl)piperazine]
7.91	N#Cc1ccc(C(=O)N2c3ccccc3CCC2CN2CCN(c3cccc4c3OCCO4)CC2)cc1 (centres unmarked) [Example 76A5, 1-[1-(4-Cyanobenzoyl)-1,2,3,4-tetrahydroquinolin-2-ylmethyl]-4-(2,3-dihydrobenzo[1,4]dioxin-5-yl)piperazine]
8.37	CN(CCOc1cccc2[nH]ccc12)CC1CCc2ccccc2N1C(=O)C1CCCCC1 (centres unmarked) [Example 72A86, N-(1-Cyclohexanecarbonyl-1,2,3,4-tetrahydroquinolin-2-ylmethyl)-2-[4-(1H)-indolyloxy]ethylmethylamine]
7.61	CC(C)C(=O)N1c2ccccc2CCC1CN1CCN(c2cccc3[nH]ccc23)CC1 (centres unmarked) [Example 68A9, 1-(4-Indolyl)-4-[1-(2-methylpropionyl)-1,2,3,4-tetrahydroquinoline-2-ylmethyl]piperazine]
8.33	O=S(=O)(Cc1ccccc1)N1c2ccccc2CCC1CN1CCN(c2cccc3[nH]ccc23)CC1 (centres unmarked) [Example 70A6, 1-(4-Indolyl)-4-(1-phenylmethylsulphonyl-1,2,3,4-tetrahydroquinoline-2-ylmethyl)piperazine]
7.74	O=C(C1CCCCC1)N1c2ccccc2CCC1CN1CCN(c2ncccn2)CC1 (centres unmarked) [Example 35A21, 1-(1-Cyclohexanecarbonyl-1,2,3,4-tetrahydroquinoline-2-ylmethyl)-4-(2-pyrimidinyl)piperazine]
7.73	O=S(=O)(c1cccs1)N1c2ccccc2CCC1CN1CCN(c2cccc3[nH]ccc23)CC1 (centres unmarked) [Example 70A1, 1-(4-Indolyl)-4-[1-(2-thienylsulphonyl)-1,2,3,4-tetrahydroquinoline-2-ylmethyl]piperazine]
8.37	N#Cc1ccc(C(=O)N2c3ccccc3CCC2CN2CCN(c3nccc4ccccc34)CC2)cc1 (centres unmarked) [Example 75A6, 1-[1-(4-Cyanobenzoyl)-1,2,3,4-tetrahydroquinolin-2-ylmethyl]-4-(1-isoquinolinyl)piperazine]
7.62	O=C(Nc1ccc(F)cc1)N1c2ccccc2CCC1CN1CCN(c2cccc3[nH]ccc23)CC1 (centres unmarked) [Example 69A2, 1-[1-(4-Fluorophenylaminocarbonyl)-1,2,3,4-tetrahydroquinoline-2-ylmethyl)-4-(4-indolyl)piperazine]
8.27	CC(=O)N1CCC(C(=O)N2c3ccccc3CCC2CN2CCN(c3nccc4ccccc34)CC2)CC1 (centres unmarked) [Example 75A7, 1-[1-(1-Acetyl-4-piperidinecarbonyl)-1,2,3,4-tetrahydroquinolin-2-ylmethyl]-4-(1-isoquinolinyl)piperazine]
7.81	COc1cc(Cl)ccc1N1CCN(CC2CCc3ccccc3N2C(=O)C2CCCCC2)CC1 (centres unmarked) [Example 62A2, 1-(4-Chloro-2-methoxyphenyl)-4-(1-cyclohexanecarbonyl-1,2,3,4-tetrahydroquinoline-2-ylmethyl)piperazine]

Compound	pKi
O=C(Cc1ccsc1)N1c2ccccc2CCC1CN1CCN(c2nccc3ccccc23)CC1 (centres unmarked) [Example 75A9, 1-(1-Isoquinolinyl)-4-[1-(3-thienyacetyl)-1,2,3,4-tetrahydroquinolin-2-ylmethyl]piperazine]	7.79
1-(2-Ethylbutanoyl-1,2,3,4-tetrahydroquinoline-2-ylmethyl)-4-(4-indolyl)piperazine [Example 24A]	7.89
O=C(Cc1ccc2c(c1)OCO2)N1c2ccccc2CCC1CN1CCN(c2cccc3[nH]ccc23)CC1 (centres unmarked) [Example 68A49, 1-[1-[2-(5-Benzo[1,3]dioxolyl)acetyl]-1,2,3,4-tetrahydroquinoline-2-ylmethyl]-4-(4-indolyl)piperazine]	7.73
